# Assay results: patent US7087762B2, “Long-lasting antimicrobial reaction product of allantoin and formaldehyde containing a low level of free formaldehyde” (ISP Investments Inc., priority 2002, dated 2006)
# How the values were obtained:
# C. Albican ATTC1023 = test: Activity against yeast and mold, 0.3% test solutions; type: cell-based, Candida albicans; design: key: + Growth; − No Growth
# Source text: Activity against yeast and mold:
# [1] = system: PSA (Pseudomonas aeruginosa); test: Preservative challenge test, screening emulsion; type: cell-based
# Method: (§1) A typical cosmetic emulsion was prepared for microbiological challenge testing and predetermined admixtures of a methylol compound and IPBC were added at various use levels. The emulsion thus prepared had the following composition:
# (§2) To prepare the emulsion, Phases A and B were heated separately to 75°–80° C. Phase A then was added to Phase B with mixing. The mixture then was cooled to 55°–60° C. At this point the desired amount of the preservative admixture was added and the product was cooled to 50° C. while stirring. The citric acid solution then was added to adjust the pH and the mixture was stirred until a temperature of 30° C. was reached.
# (§3) The challenge tests were carried out using the following microorganisms: SA, ECOLI, PSA, PC, AN and CAN, in this manner. 50 g aliquots of the test emulsion containing various amounts of the preservative admixture were inoculated with approximately 10^7–10^8 of the challenge organisms. The test samples then were stirred to disperse the challenge inoculum. The samples were incubated and assayed at 48 hours, 7, 14, 21 and 28 days. The assays were performed on 1 g of the test sample by serially diluting 10^1 to 10^6 of the original concentration. The plating medium for bacteria was Letheen agar and for fungi it was low pH Mycophil agar with Tween 20. Each plated sample was incubated for 48 hours at 37° C. for bacteria, 5 days at 25° C. for mold, and 3 days at 25° C. for fungi. After incubation, readings of the number of colonies per milliliter (cfu/ml) were made. At 21 days the test product was reinoculated with half of the original inoculum.
# [2] = system: SA (Staphylococcus aureus); test: Preservative challenge test, screening emulsion; type: cell-based
# Method: as §1, §2, §3
smiles,measurement,setting,value
O=C1C(N(CO)C(=O)NCO)N(CO)C(=O)N1CO (centres unmarked) [Germall II],"Growth, C. Albican ATTC1023",C. Albican ATTC1023,−
same,"cfu/ml, 48 hrs",[1]; 250 ppm,<10 cfu/ml
same,"cfu/ml, 7 days",[1]; 250 ppm,<10 cfu/ml
same,"cfu/ml, 14 days",[1]; 250 ppm,<10 cfu/ml
same,"cfu/ml, 21 days",[1]; 250 ppm,<10 cfu/ml
same,"cfu/ml, 28 days",[1]; 250 ppm,<10 cfu/ml
same,"cfu/ml, 48 hrs",[1]; 500 ppm,<10 cfu/ml
same,"cfu/ml, 7 days",[1]; 500 ppm,<10 cfu/ml
same,"cfu/ml, 14 days",[1]; 500 ppm,<10 cfu/ml
same,"cfu/ml, 21 days",[1]; 500 ppm,<10 cfu/ml
same,"cfu/ml, 28 days",[1]; 500 ppm,<10 cfu/ml
same,"cfu/ml, 48 hrs",[1]; 1000 ppm,<10 cfu/ml
same,"cfu/ml, 7 days",[1]; 1000 ppm,<10 cfu/ml
same,"cfu/ml, 14 days",[1]; 1000 ppm,<10 cfu/ml
same,"cfu/ml, 21 days",[1]; 1000 ppm,<10 cfu/ml
same,"cfu/ml, 28 days",[1]; 1000 ppm,<10 cfu/ml
same,"cfu/ml, 48 hrs",[1]; 2000 ppm,<10 cfu/ml
same,"cfu/ml, 7 days",[1]; 2000 ppm,<10 cfu/ml
same,"cfu/ml, 14 days",[1]; 2000 ppm,<10 cfu/ml
same,"cfu/ml, 21 days",[1]; 2000 ppm,<10 cfu/ml
same,"cfu/ml, 28 days",[1]; 2000 ppm,<10 cfu/ml
same,"cfu/ml, 48 hrs",[2]; 250 ppm,"55,000 cfu/ml"
same,"cfu/ml, 7 days",[2]; 250 ppm,<10 cfu/ml
same,"cfu/ml, 14 days",[2]; 250 ppm,<10 cfu/ml
same,"cfu/ml, 21 days",[2]; 250 ppm,<10 cfu/ml
same,"cfu/ml, 28 days",[2]; 250 ppm,<10 cfu/ml
same,"cfu/ml, 48 hrs",[2]; 500 ppm,"17,000 cfu/ml"
same,"cfu/ml, 7 days",[2]; 500 ppm,<10 cfu/ml
same,"cfu/ml, 14 days",[2]; 500 ppm,<10 cfu/ml
same,"cfu/ml, 21 days",[2]; 500 ppm,<10 cfu/ml
same,"cfu/ml, 28 days",[2]; 500 ppm,<10 cfu/ml
same,"cfu/ml, 48 hrs",[2]; 1000 ppm,<10 cfu/ml
same,"cfu/ml, 7 days",[2]; 1000 ppm,<10 cfu/ml
same,"cfu/ml, 14 days",[2]; 1000 ppm,<10 cfu/ml
same,"cfu/ml, 21 days",[2]; 1000 ppm,<10 cfu/ml
same,"cfu/ml, 28 days",[2]; 1000 ppm,<10 cfu/ml
same,"cfu/ml, 48 hrs",[2]; 2000 ppm,<10 cfu/ml
same,"cfu/ml, 7 days",[2]; 2000 ppm,<10 cfu/ml
same,"cfu/ml, 14 days",[2]; 2000 ppm,<10 cfu/ml
same,"cfu/ml, 21 days",[2]; 2000 ppm,<10 cfu/ml
same,"cfu/ml, 28 days",[2]; 2000 ppm,<10 cfu/ml
